In patent publication US20210317090A1, “AMINO ACID DEPLETION AGENTS AS ANTIPROLIFERATIVE AGENTS” (University of Central Florida Research Foundation, Inc., priority 2018, published 2021):

Molecular target: T1, LAT-1 (Homo sapiens, UniProt Q01650)
T1 construct: endogenous in cells; host or cells: L3.6pl human pancreatic cancer cells
Assay: 3H-Leucine uptake assay
Assay type: cell-based
Conditions: L3.6pl cells, increasing concentration, 15 min uptake (FIG. 10D, 10E)
Procedure: ^3H-Leucine uptake experiments were performed according to the protocol developed by Hälfliger et al. (2018) (referenced below with the following changes. Briefly, cells were seeded at 60% confluency in a 24-well plate and incubated for 4 h at 37° C. After 4 hours, different concentrations of compound 10 were added and the cells were then incubated overnight. L-^3H-leucine uptake inhibition was measured for 15 minutes using a 12 μM stock of L-[^3H]leucine (79 Ci/mmol). The final concentration of ^3H-leucine in each well was 1.2 uM. This concentration produced a CPM reading of ˜4000 cpm for the control. Uptake was terminated by removing the buffer solution followed by washing the cells with cold Na^+-free Hank's Balanced Salt Solution. Cells were then lysed to give ˜500 μL of cell lysate. A portion of the cell lysate (200 μL) was mixed with Scintiverse™ BD Cocktail for determining radiocounts. The radioactivity was measured with a scintillation counter (Beckman Coulter LS 6500 Multi-Purpose Scintillation Counter). Another portion of the cell lysate (300 μL) was used for protein determination using the BCA method. The final data was expressed as cpm/microgram of protein to account for the different number of cells remaining after the experiment. This was necessary because compound 10 was toxic and less cells were present after the overnight incubation (24 h). […]

T1 sequence (Q01650 whole entry): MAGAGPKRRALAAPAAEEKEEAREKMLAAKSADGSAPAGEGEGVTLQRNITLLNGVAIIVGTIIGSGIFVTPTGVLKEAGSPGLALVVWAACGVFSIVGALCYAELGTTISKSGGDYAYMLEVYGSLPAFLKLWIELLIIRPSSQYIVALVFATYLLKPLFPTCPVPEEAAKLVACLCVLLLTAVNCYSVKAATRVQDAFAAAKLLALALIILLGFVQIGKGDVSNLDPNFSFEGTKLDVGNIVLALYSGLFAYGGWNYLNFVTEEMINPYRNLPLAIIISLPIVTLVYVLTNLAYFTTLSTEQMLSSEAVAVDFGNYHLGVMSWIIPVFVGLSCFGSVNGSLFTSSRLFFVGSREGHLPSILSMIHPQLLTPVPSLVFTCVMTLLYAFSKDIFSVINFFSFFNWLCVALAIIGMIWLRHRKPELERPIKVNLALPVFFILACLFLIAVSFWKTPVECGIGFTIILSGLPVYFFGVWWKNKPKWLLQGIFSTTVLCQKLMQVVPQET
T1 sequence (P08195 102-630 partner): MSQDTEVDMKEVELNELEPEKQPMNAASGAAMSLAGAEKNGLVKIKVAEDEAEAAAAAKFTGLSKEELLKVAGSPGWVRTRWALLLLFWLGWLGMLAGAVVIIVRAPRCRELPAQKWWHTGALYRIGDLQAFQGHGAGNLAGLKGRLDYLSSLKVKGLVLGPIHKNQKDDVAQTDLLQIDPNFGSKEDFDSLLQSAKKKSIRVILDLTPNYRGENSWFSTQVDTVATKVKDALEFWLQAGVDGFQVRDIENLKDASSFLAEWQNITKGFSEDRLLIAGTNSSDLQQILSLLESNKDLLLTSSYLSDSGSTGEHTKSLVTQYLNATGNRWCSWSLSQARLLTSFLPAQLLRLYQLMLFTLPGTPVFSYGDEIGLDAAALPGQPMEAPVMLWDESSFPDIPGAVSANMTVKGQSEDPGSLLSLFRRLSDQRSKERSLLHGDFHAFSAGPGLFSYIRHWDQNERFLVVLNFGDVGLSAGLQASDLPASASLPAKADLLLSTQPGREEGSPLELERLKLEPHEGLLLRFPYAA

3H-Leucine uptake: able to inhibit the uptake
Compound: CC(C)CCN1CCN(C(CNCc2ccccc2)CC2CCCCC2)CC1CC(C)C.Cl.Cl.Cl (stereo not shown) [Compound 10, Benzyl-{3-cyclohexyl-2-[3-isobutyl-4-(3-methyl-butyl)-piperazin-1-yl]-propyl}-amine trihydrochloride salt]
